Experimental data published in publication PMC9898036, “VIP152 is a selective CDK9 inhibitor with pre-clinical in vitro and in vivo efficacy in chronic lymphocytic leukemia” (Leukemia, 2022).
Like-named read-outs stand apart in the source and are kept apart here.

Key:
Assay type in all cases: binding
[1] = biological target: RPS6KA5(Kin.Dom.2-C-terminal) (Homo sapiens, UniProt O75582); assay: KINOMEscan: RPS6KA5(Kin.Dom.2-C-terminal); settings: 100 nM, read-out: Percent Control
[2] = biological target: MARK4 (Homo sapiens, UniProt Q96L34); assay: KINOMEscan: MARK4; settings: 1000 nM, read-out: Percent Control
[3] = biological target: CAMK4 (Homo sapiens, UniProt Q16566); assay: KINOMEscan: CAMK4; settings: 1000 nM, read-out: Percent Control
[4] = biological target: CDK4-cyclinD1 (Homo sapiens, UniProt P11802); assay: KINOMEscan: CDK4-cyclinD1; settings: 1000 nM, read-out: Percent Control
[5] = biological target: human kinome (Homo sapiens, UniProt P42336); assay: DiscoverX KINOMEscan kinase profiling (468 assays); settings: read-out: Percent Control
Protocol: (§1) Kinomescan Kinase Profiling Assay
(§2) Kinomescan Assay was performed at DiscoverRX and described in Fabian, et al. 2005, Nat.
(§3) Biotechnol. In brief, kinases were produced and subsequently tagged with DNA for qPCR detection.
(§4) Streptavidin-coated magnetic beads were bound to biotinylated kinase ligands to serve as a solid support.
(§5) VIP152 was dissolved in DMSO and tested across a 10 serial threefold dilution set and compared to a test
(§6) compound and a DMSO control.
(§7) Kinome map was produced via TreeSpot
(§8) Analysis from DiscoverRX. […]

[6] = biological target: human kinome (Homo sapiens, UniProt Q9C098); assay: DiscoverX KINOMEscan kinase profiling (468 assays); settings: DCAMKL3 (Entrez DCLK3); 100 nM; read-out: Percent Control
Protocol: as §1, §2, §3, §4, §5, §6, §7, §8

[7] = biological target: human kinome (Homo sapiens, UniProt P00533, T790M); assay: DiscoverX KINOMEscan kinase profiling (468 assays); settings: EGFR(T790M); 100 nM; read-out: Percent Control
Protocol: as §1, §2, §3, §4, §5, §6, §7, §8

[8] = biological target: human kinome (Homo sapiens, UniProt Q16584); assay: DiscoverX KINOMEscan kinase profiling (468 assays); settings: MLK3 (Entrez MAP3K11); 100 nM; read-out: Percent Control
Protocol: as §1, §2, §3, §4, §5, §6, §7, §8

[9] = biological target: human kinome (Homo sapiens, UniProt Q08881); assay: DiscoverX KINOMEscan kinase profiling (468 assays); settings: ITK; 100 nM; read-out: Percent Control
Protocol: as §1, §2, §3, §4, §5, §6, §7, §8

[10] = biological target: human kinome (Homo sapiens, UniProt P07948); assay: DiscoverX KINOMEscan kinase profiling (468 assays); settings: LYN; 100 nM; read-out: Percent Control
Protocol: as §1, §2, §3, §4, §5, §6, §7, §8

[11] = biological target: human kinome (Homo sapiens, UniProt Q9P0L2); assay: DiscoverX KINOMEscan kinase profiling (468 assays); settings: MARK1; 100 nM; read-out: Percent Control
Protocol: as §1, §2, §3, §4, §5, §6, §7, §8

[12] = biological target: human kinome (Homo sapiens, UniProt O14965); assay: DiscoverX KINOMEscan kinase profiling (468 assays); settings: AURKA; 100 nM; read-out: Percent Control
Protocol: as §1, §2, §3, §4, §5, §6, §7, §8

[13] = biological target: human kinome (Homo sapiens, UniProt Q9Y463); assay: DiscoverX KINOMEscan kinase profiling (468 assays); settings: DYRK1B; 100 nM; read-out: Percent Control
Protocol: as §1, §2, §3, §4, §5, §6, §7, §8

[14] = biological target: human kinome (Homo sapiens, UniProt Q8NE63); assay: DiscoverX KINOMEscan kinase profiling (468 assays); settings: HIPK4; 100 nM; read-out: Percent Control
Protocol: as §1, §2, §3, §4, §5, §6, §7, §8

[15] = biological target: human kinome (Homo sapiens, UniProt Q8NEB9); assay: DiscoverX KINOMEscan kinase profiling (468 assays); settings: kinase VPS34 (Entrez PIK3C3); compound concentration 1000 nM; read-out: Percent Control
Protocol: as §1, §2, §3, §4, §5, §6, §7, §8

[16] = biological target: human kinome (Homo sapiens, UniProt P54756); assay: DiscoverX KINOMEscan kinase profiling (468 assays); settings: EPHA5; 100 nM; read-out: Percent Control
Protocol: as §1, §2, §3, §4, §5, §6, §7, §8

[17] = biological target: human kinome (Homo sapiens, UniProt P28482); assay: DiscoverX KINOMEscan kinase profiling (468 assays); settings: ERK2 (Entrez MAPK1); 100 nM; read-out: Percent Control
Protocol: as §1, §2, §3, §4, §5, §6, §7, §8

[18] = biological target: human kinome (Homo sapiens, UniProt P00533, G719C); assay: DiscoverX KINOMEscan kinase profiling (468 assays); settings: EGFR(G719C); 100 nM; read-out: Percent Control
Protocol: as §1, §2, §3, §4, §5, §6, §7, §8

[19] = biological target: human kinome (Homo sapiens, UniProt Q15349); assay: DiscoverX KINOMEscan kinase profiling (468 assays); settings: compound concentration 1000 nM, read-out: Percent Control
Protocol: as §1, §2, §3, §4, §5, §6, §7, §8

[20] = biological target: human kinome (Homo sapiens, UniProt Q9BWU1); assay: DiscoverX KINOMEscan kinase profiling (468 assays); settings: CDK11 (Entrez CDK19); 100 nM; read-out: Percent Control
Protocol: as §1, §2, §3, §4, §5, §6, §7, §8

[21] = biological target: human kinome (Homo sapiens, UniProt O60331); assay: DiscoverX KINOMEscan kinase profiling (468 assays); settings: read-out: Percent Control
Protocol: as §1, §2, §3, §4, §5, §6, §7, §8

[22] = biological target: human kinome (Homo sapiens, UniProt P07949, V804L); assay: DiscoverX KINOMEscan kinase profiling (468 assays); settings: kinase RET(V804L) (Entrez RET); compound concentration 1000 nM; read-out: Percent Control
Protocol: as §1, §2, §3, §4, §5, §6, §7, §8

[23] = biological target: human kinome (Homo sapiens, UniProt Q14004); assay: DiscoverX KINOMEscan kinase profiling (468 assays); settings: read-out: Percent Control
Protocol: as §1, §2, §3, §4, §5, §6, §7, §8

[24] = biological target: human kinome (Homo sapiens, UniProt Q9UM73, C1156Y); assay: DiscoverX KINOMEscan kinase profiling (468 assays); settings: ALK(C1156Y); 100 nM; read-out: Percent Control
Protocol: as §1, §2, §3, §4, §5, §6, §7, §8

[25] = biological target: human kinome (Homo sapiens, UniProt Q8TD19); assay: DiscoverX KINOMEscan kinase profiling (468 assays); settings: read-out: Percent Control
Protocol: as §1, §2, §3, §4, §5, §6, §7, §8

[26] = biological target: human kinome (Homo sapiens, UniProt P08581, M1250T); assay: DiscoverX KINOMEscan kinase profiling (468 assays); settings: MET(M1250T); 100 nM; read-out: Percent Control
Protocol: as §1, §2, §3, §4, §5, §6, §7, §8

[27] = biological target: CSNK1G2 (Homo sapiens, UniProt P78368); assay: KINOMEscan: CSNK1G2; settings: 1000 nM, read-out: Percent Control
[28] = biological target: FLT3(D835V) (Homo sapiens, UniProt P36888, D835V); assay: KINOMEscan: FLT3(D835V); settings: 1000 nM, read-out: Percent Control
[29] = biological target: MLK2 (Homo sapiens, UniProt Q02779); assay: KINOMEscan: MLK2; settings: 1000 nM, read-out: Percent Control
[30] = biological target: ANKK1 (Homo sapiens, UniProt Q8NFD2); assay: KINOMEscan: ANKK1; settings: 1000 nM, read-out: Percent Control
[31] = biological target: Endothelin ETB (Homo sapiens, UniProt P24530); assay: Eurofins Diversity Panel; settings: hum, Conc. 10 μM
[32] = biological target: CSNK2A1 (Homo sapiens, UniProt P68400); assay: KINOMEscan: CSNK2A1; settings: 1000 nM, read-out: Percent Control

Sequence of human kinome (Homo sapiens, UniProt Q8TD19) (Q8TD19 whole entry): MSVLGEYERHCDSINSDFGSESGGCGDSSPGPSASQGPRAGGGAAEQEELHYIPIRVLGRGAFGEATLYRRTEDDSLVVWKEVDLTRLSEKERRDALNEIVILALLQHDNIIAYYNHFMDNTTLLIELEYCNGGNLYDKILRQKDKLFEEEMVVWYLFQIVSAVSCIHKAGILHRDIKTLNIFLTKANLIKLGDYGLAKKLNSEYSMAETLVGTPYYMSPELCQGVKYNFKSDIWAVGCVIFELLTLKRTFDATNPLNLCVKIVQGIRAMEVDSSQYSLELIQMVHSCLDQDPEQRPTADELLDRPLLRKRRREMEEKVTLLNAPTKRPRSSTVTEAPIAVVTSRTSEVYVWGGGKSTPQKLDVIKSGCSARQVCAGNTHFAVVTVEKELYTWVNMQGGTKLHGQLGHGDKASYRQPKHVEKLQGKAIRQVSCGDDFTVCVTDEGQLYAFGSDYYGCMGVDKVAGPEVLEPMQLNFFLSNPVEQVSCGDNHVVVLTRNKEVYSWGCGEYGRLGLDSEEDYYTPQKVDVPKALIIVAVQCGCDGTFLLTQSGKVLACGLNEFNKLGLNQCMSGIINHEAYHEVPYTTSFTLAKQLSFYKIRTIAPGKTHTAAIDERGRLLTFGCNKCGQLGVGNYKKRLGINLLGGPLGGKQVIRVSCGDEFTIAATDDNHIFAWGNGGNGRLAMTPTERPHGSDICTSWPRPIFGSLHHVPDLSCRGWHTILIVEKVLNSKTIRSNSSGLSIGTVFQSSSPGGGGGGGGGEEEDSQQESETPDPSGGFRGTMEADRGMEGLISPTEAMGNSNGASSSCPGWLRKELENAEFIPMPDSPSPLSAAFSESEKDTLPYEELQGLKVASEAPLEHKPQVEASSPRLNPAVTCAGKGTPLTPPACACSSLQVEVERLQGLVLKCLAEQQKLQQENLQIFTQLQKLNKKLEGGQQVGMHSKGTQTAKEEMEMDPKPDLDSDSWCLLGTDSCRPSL
Sequence of human kinome (Homo sapiens, UniProt O60331) (O60331 whole entry): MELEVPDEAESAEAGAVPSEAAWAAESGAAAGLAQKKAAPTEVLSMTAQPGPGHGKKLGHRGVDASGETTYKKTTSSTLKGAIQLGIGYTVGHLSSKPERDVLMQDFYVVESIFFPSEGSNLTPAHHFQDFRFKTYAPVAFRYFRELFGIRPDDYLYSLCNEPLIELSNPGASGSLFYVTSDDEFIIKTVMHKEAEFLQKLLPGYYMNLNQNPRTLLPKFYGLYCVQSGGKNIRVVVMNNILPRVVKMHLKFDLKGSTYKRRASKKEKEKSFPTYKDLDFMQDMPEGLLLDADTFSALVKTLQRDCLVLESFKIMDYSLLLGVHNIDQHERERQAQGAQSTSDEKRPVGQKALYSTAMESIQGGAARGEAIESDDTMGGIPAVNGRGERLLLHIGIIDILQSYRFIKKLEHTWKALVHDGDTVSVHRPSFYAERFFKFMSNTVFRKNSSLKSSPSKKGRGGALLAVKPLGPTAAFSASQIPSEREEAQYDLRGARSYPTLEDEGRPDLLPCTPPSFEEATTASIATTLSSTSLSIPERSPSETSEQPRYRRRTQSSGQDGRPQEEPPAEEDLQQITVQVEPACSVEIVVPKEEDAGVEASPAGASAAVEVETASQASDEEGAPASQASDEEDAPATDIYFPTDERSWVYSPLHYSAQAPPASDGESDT
Sequence of human kinome (Homo sapiens, UniProt Q15349) (Q15349 whole entry): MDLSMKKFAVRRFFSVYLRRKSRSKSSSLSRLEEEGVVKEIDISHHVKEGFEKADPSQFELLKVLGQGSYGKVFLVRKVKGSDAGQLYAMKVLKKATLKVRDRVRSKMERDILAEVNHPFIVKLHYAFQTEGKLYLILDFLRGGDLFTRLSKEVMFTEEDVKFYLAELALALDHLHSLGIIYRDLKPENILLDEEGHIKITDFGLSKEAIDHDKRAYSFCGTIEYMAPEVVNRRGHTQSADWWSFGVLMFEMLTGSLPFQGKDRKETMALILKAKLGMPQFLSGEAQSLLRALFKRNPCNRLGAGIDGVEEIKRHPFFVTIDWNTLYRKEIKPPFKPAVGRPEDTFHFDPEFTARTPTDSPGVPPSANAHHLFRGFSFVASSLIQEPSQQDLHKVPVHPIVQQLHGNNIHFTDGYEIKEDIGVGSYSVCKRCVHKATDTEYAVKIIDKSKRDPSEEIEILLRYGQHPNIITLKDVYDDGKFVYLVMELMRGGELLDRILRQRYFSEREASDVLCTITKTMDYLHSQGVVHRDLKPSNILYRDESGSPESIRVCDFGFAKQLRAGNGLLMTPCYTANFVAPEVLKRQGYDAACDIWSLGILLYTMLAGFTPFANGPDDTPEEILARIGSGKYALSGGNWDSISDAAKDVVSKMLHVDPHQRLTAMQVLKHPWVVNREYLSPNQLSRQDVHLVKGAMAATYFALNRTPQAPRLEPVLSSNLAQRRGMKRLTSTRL
Sequence of human kinome (Homo sapiens, UniProt P42336) (P42336 whole entry): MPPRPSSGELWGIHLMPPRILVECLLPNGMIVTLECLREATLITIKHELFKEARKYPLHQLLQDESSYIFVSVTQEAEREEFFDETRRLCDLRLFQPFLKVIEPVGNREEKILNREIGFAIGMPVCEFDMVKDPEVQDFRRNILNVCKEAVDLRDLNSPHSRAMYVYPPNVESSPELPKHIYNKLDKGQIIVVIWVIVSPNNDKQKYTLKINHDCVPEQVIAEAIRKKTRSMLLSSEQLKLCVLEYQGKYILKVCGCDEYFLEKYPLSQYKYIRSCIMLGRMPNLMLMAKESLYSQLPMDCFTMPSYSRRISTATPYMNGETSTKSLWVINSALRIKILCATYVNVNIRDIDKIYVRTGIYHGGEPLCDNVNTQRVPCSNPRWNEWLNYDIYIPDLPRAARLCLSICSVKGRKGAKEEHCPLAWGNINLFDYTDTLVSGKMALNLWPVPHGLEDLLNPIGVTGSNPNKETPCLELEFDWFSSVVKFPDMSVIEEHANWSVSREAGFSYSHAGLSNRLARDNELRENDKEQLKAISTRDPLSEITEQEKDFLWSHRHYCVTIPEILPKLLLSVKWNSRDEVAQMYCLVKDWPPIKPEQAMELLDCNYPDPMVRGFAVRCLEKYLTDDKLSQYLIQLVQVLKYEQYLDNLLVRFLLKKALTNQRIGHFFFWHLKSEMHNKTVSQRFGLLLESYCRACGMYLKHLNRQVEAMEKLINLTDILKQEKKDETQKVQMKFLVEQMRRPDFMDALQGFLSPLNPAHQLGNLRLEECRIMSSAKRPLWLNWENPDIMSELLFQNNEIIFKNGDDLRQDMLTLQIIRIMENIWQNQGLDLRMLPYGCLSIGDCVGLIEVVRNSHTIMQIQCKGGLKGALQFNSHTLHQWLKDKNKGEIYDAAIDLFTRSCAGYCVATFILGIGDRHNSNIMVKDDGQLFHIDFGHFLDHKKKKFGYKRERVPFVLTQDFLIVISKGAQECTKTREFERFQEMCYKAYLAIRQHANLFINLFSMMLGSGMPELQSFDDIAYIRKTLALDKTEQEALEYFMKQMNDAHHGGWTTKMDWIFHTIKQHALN
Sequence of human kinome (Homo sapiens, UniProt P54756) (P54756 25-1037): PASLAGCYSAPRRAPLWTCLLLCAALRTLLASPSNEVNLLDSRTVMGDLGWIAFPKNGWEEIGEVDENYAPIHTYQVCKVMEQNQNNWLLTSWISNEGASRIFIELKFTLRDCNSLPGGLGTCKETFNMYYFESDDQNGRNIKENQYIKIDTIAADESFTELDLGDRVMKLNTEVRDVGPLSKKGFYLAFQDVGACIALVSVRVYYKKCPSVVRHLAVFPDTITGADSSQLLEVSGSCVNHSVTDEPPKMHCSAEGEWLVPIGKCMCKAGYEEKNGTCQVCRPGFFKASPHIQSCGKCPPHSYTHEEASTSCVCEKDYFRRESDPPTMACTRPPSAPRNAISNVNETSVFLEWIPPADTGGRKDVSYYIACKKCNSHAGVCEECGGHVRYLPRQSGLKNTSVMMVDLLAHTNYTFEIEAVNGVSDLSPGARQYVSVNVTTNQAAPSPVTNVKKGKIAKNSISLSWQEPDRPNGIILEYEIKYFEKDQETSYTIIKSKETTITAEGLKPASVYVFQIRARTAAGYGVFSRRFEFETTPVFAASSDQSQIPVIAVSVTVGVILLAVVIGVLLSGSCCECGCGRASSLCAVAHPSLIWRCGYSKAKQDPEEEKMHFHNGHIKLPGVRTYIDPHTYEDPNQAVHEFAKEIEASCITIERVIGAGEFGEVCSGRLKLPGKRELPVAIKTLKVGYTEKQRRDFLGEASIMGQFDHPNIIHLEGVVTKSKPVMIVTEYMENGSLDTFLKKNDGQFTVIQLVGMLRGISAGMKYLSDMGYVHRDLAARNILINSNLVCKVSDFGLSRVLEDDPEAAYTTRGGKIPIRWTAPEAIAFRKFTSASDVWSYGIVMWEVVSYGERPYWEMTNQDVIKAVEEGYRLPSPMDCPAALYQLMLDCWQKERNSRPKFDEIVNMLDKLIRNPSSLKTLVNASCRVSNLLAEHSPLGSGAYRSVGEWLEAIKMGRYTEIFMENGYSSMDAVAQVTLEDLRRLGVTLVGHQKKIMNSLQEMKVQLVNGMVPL
Sequence of human kinome (Homo sapiens, UniProt O14965) (O14965 whole entry): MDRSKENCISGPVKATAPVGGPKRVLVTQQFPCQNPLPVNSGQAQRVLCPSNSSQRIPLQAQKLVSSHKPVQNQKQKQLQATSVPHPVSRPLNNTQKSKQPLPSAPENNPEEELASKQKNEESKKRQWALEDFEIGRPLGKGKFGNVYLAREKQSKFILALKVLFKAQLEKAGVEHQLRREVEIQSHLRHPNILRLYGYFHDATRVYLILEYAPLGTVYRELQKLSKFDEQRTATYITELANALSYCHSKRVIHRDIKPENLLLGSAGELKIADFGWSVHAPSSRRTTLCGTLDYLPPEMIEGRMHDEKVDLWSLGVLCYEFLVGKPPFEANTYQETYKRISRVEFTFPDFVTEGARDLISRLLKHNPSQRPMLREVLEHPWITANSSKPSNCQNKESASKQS

## COc1cc(F)ccc1-c1cc(Nc2cc(CS(C)(=N)=O)ccn2)ncc1F (stereo not drawn) [VIP152]
[1]
  remaining binding at 0.1 µM: 100%
[2]
  remaining binding at 1 µM: 88%
[3]
  remaining binding at 1 µM: 100%
[4]
  remaining binding at 1 µM: 7.8%
[5]; PIK3CA, 100 nM
  remaining binding at 0.1 µM: 100%
[5]; kinase PIK3CA (Entrez PIK3CA), compound concentration 1000 nM
  remaining binding at 1 µM: 95%
[6]
  remaining binding at 0.1 µM: 100%
[7]
  remaining binding at 0.1 µM: 100%
[8]
  remaining binding at 0.1 µM: 100%
[9]
  remaining binding at 0.1 µM: 100%
[10]
  remaining binding at 0.1 µM: 100%
[11]
  remaining binding at 0.1 µM: 82%
[12]
  remaining binding at 0.1 µM: 100%
[13]
  remaining binding at 0.1 µM: 100%
[14]
  remaining binding at 0.1 µM: 100%
[15]
  remaining binding at 1 µM: 100%
[16]
  remaining binding at 0.1 µM: 100%
[17]
  remaining binding at 0.1 µM: 100%
[18]
  remaining binding at 0.1 µM: 100%
[19]; kinase RSK3(Kin.Dom.1-N-terminal) (Entrez RPS6KA2)
  remaining binding at 1 µM: 98%
[19]; kinase RSK3(Kin.Dom.2-C-terminal) (Entrez RPS6KA2)
  remaining binding at 1 µM: 92%
[20]
  remaining binding at 0.1 µM: 100%
[21]; PIP5K1C, 100 nM
  remaining binding at 0.1 µM: 60%
[21]; kinase PIP5K1C (Entrez PIP5K1C), compound concentration 1000 nM
  remaining binding at 1 µM: 92%
[22]
  remaining binding at 1 µM: 86%
[23]
  remaining binding at 0.1 µM: 66%
[24]
  remaining binding at 0.1 µM: 100%
[25]; NEK9, 100 nM
  remaining binding at 0.1 µM: 100%
[25]; kinase NEK9 (Entrez NEK9), compound concentration 1000 nM
  remaining binding at 1 µM: 93%
[26]
  remaining binding at 0.1 µM: 92%
[27]
  remaining binding at 1 µM: 93%
[28]
  remaining binding at 1 µM: 15%
[29]
  remaining binding at 1 µM: 100%
[30]
  remaining binding at 1 µM: 83%
[31]
  inhibition at 10 µM: 3%
[32]
  remaining binding at 1 µM: 97%
